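Growth conditions: 96-well plates. Treatment: test compound, 48 hours, 5 concentrations. Analysis: linear interpolation between bracketing concentrations; unreached endpoints set to highest concentration. Abbreviation: GI50, concentration required for 50% inhibition of growth. TGI: concentration producing complete growth inhibition.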
How the values were obtained:
Assay in all cases: DTP human tumour cell line panel, 48 h
SF-539 CNS = test system: SF-539 CNS
MCF7 breast = test system: MCF7 breast
HCT-15 colon = test system: HCT-15 colon
NCI-H226 lung = test system: NCI-H226 lung
BT-549 breast = test system: BT-549 breast
SF-268 CNS = test system: SF-268 CNS
ACHN renal = test system: ACHN renal
K-562 leukemia = test system: K-562 leukemia
CCRF-CEM leukemia = test system: CCRF-CEM leukemia
NCI-H522 lung = test system: NCI-H522 lung
UACC-257 melanoma = test system: UACC-257 melanoma
HL-60(TB) leukemia = test system: HL-60(TB) leukemia
EKVX NSCLC = test system: EKVX NSCLC
MALME-3M melanoma = test system: MALME-3M melanoma
MDA-MB-231 breast = test system: MDA-MB-231 breast
UO-31 renal = test system: UO-31 renal
SNB-19 CNS = test system: SNB-19 CNS
TK-10 renal = test system: TK-10 renal
SW-620 colon = test system: SW-620 colon
HT29 colon = test system: HT29 colon
SK-MEL-5 melanoma = test system: SK-MEL-5 melanoma
OVCAR-8 ovarian = test system: OVCAR-8 ovarian
LOX IMVI melanoma = test system: LOX IMVI melanoma
CAKI-1 renal = test system: CAKI-1 renal
SF-295 CNS = test system: SF-295 CNS
SK-MEL-2 melanoma = test system: SK-MEL-2 melanoma
U251 CNS = test system: U251 CNS
NCI-H460 lung = test system: NCI-H460 lung
RPMI-8226 leukemia = test system: RPMI-8226 leukemia
NCI-H23 lung = test system: NCI-H23 lung
OVCAR-5 ovarian = test system: OVCAR-5 ovarian
SR leukemia = test system: SR leukemia
OVCAR-4 ovarian = test system: OVCAR-4 ovarian
A549 NSCLC = test system: A549 NSCLC
A498 renal = test system: A498 renal
IGROV1 ovarian = test system: IGROV1 ovarian
NCI/ADR-RES ovarian = test system: NCI/ADR-RES ovarian
T-47D breast = test system: T-47D breast
RXF 393 renal = test system: RXF 393 renal
786-0 renal = test system: 786-0 renal
COLO 205 colon = test system: COLO 205 colon
HCT-116 colon = test system: HCT-116 colon
HOP-92 NSCLC = test system: HOP-92 NSCLC
SK-OV-3 ovarian = test system: SK-OV-3 ovarian
HOP-62 NSCLC = test system: HOP-62 NSCLC
UACC-62 melanoma = test system: UACC-62 melanoma
MOLT-4 leukemia = test system: MOLT-4 leukemia
SN12C renal = test system: SN12C renal
HS 578T breast = test system: HS 578T breast
PC-3 prostate = test system: PC-3 prostate
HCC-2998 colon = test system: HCC-2998 colon
KM12 colon = test system: KM12 colon
SK-MEL-28 melanoma = test system: SK-MEL-28 melanoma
MDA-MB-435 = test system: MDA-MB-435
OVCAR-3 ovarian = test system: OVCAR-3 ovarian
MDA-MB-468 breast = test system: MDA-MB-468 breast
M14 melanoma = test system: M14 melanoma
DU-145 prostate = test system: DU-145 prostate
SNB-75 CNS = test system: SNB-75 CNS

Compound `CN(C)CCNC(=O)OCCCCOc1cc(O)c2c(=O)cc(-c3ccccc3)oc2c1` has a GI50 (SF-539 CNS) of 1.53 µM, a TGI (SF-539 CNS) of 2.93 µM and a GI50 (MCF7 breast) of 1.59 µM. It also gave a TGI (MCF7 breast) of 3.76 µM, a GI50 (HCT-15 colon) of 2.25 µM and a TGI (HCT-15 colon) of 5.8 µM. The GI50 (NCI-H226 lung) was 10.1 µM, the TGI (NCI-H226 lung) was 28.8 µM and the GI50 (BT-549 breast) was 10.6 µM. For the same compound, the TGI (BT-549 breast) was 22.7 µM, the GI50 (SF-268 CNS) was 3.51 µM and the TGI (SF-268 CNS) was 16.2 µM. It also gave a GI50 (ACHN renal) of 1.92 µM, a TGI (ACHN renal) of 3.97 µM and a GI50 (K-562 leukemia) of 1.96 µM. For the same compound, the TGI (K-562 leukemia) was 5.98 µM, the GI50 (CCRF-CEM leukemia) was 3.21 µM and the TGI (CCRF-CEM leukemia) was 10.7 µM. For the same compound, the GI50 (NCI-H522 lung) was 3.68 µM, the TGI (NCI-H522 lung) was 16 µM and the GI50 (UACC-257 melanoma) was 1.89 µM. It also gave a TGI (UACC-257 melanoma) of 3.61 µM, a GI50 (HL-60(TB) leukemia) of 1.64 µM and a TGI (HL-60(TB) leukemia) of 3.59 µM. For the same compound, the GI50 (EKVX NSCLC) was 7.87 µM, the TGI (EKVX NSCLC) was 20.2 µM and the GI50 (MALME-3M melanoma) was 1.57 µM. For the same compound, the TGI (MALME-3M melanoma) was 2.97 µM, the GI50 (MDA-MB-231 breast) was 1.74 µM and the TGI (MDA-MB-231 breast) was 3.78 µM. For the same compound, the GI50 (UO-31 renal) was 4.56 µM, the TGI (UO-31 renal) was 16.9 µM and the GI50 (SNB-19 CNS) was 6.09 µM. The TGI (SNB-19 CNS) was 20.3 µM, the GI50 (TK-10 renal) was 18.5 µM and the TGI (TK-10 renal) was 33.2 µM. The GI50 (SW-620 colon) was 2.03 µM, the TGI (SW-620 colon) was 4.49 µM and the GI50 (HT29 colon) was 1.88 µM. It also gave a TGI (HT29 colon) of 3.98 µM, a GI50 (SK-MEL-5 melanoma) of 1.65 µM and a TGI (SK-MEL-5 melanoma) of 3.03 µM. The GI50 (OVCAR-8 ovarian) was 10 µM, the TGI (OVCAR-8 ovarian) was 24.5 µM and the GI50 (LOX IMVI melanoma) was 1.79 µM. The TGI (LOX IMVI melanoma) was 3.25 µM, the GI50 (CAKI-1 renal) was 3.04 µM and the TGI (CAKI-1 renal) was 12.2 µM. The GI50 (SF-295 CNS) was 2.14 µM, the TGI (SF-295 CNS) was 4.06 µM and the GI50 (SK-MEL-2 melanoma) was 2.88 µM. It also gave a TGI (SK-MEL-2 melanoma) of 9.08 µM, a GI50 (U251 CNS) of 2.31 µM and a TGI (U251 CNS) of 6.74 µM. The GI50 (NCI-H460 lung) was 3.01 µM, the TGI (NCI-H460 lung) was 10.1 µM and the GI50 (RPMI-8226 leukemia) was 2.97 µM. For the same compound, the TGI (RPMI-8226 leukemia) was 9.69 µM, the GI50 (NCI-H23 lung) was 7.23 µM and the TGI (NCI-H23 lung) was 20.4 µM. It also gave a GI50 (OVCAR-5 ovarian) of 11.8 µM, a TGI (OVCAR-5 ovarian) of 24.2 µM and a GI50 (SR leukemia) of 1.95 µM. The TGI (SR leukemia) was 4.16 µM, the GI50 (OVCAR-4 ovarian) was 10.1 µM and the TGI (OVCAR-4 ovarian) was 24.7 µM. The GI50 (A549 NSCLC) was 5.26 µM, the TGI (A549 NSCLC) was 19.3 µM and the GI50 (A498 renal) was 2.21 µM. It also gave a TGI (A498 renal) of 5.77 µM, a GI50 (IGROV1 ovarian) of 15.7 µM and a TGI (IGROV1 ovarian) of 29.6 µM. The GI50 (NCI/ADR-RES ovarian) was 7.37 µM, the TGI (NCI/ADR-RES ovarian) was 34.2 µM and the GI50 (T-47D breast) was 1.88 µM. It also gave a TGI (T-47D breast) of 4.23 µM, a GI50 (RXF 393 renal) of 1.64 µM and a TGI (RXF 393 renal) of 3.35 µM. It also gave a GI50 (786-0 renal) of 2 µM, a TGI (786-0 renal) of 4.72 µM and a GI50 (COLO 205 colon) of 1.84 µM. It also gave a TGI (COLO 205 colon) of 3.5 µM, a GI50 (HCT-116 colon) of 2.01 µM and a TGI (HCT-116 colon) of 4.85 µM. The GI50 (HOP-92 NSCLC) was 4.35 µM, the TGI (HOP-92 NSCLC) was 19.1 µM and the GI50 (SK-OV-3 ovarian) was 11.3 µM. For the same compound, the TGI (SK-OV-3 ovarian) was 23.7 µM, the GI50 (HOP-62 NSCLC) was 10.4 µM and the TGI (HOP-62 NSCLC) was 24.4 µM. The GI50 (UACC-62 melanoma) was 1.78 µM, the TGI (UACC-62 melanoma) was 3.43 µM and the GI50 (MOLT-4 leukemia) was 2.25 µM. The TGI (MOLT-4 leukemia) was 6.24 µM, the GI50 (SN12C renal) was 13.8 µM and the TGI (SN12C renal) was 27.4 µM. For the same compound, the GI50 (HS 578T breast) was 4.35 µM, the TGI (HS 578T breast) was 23.4 µM and the GI50 (PC-3 prostate) was 4.35 µM. For the same compound, the TGI (PC-3 prostate) was 17.9 µM, the GI50 (HCC-2998 colon) was 3.25 µM and the TGI (HCC-2998 colon) was 10.3 µM. It also gave a GI50 (KM12 colon) of 6.09 µM, a TGI (KM12 colon) of 20.4 µM and a GI50 (SK-MEL-28 melanoma) of 1.62 µM. The TGI (SK-MEL-28 melanoma) was 3.1 µM, the GI50 (MDA-MB-435) was 2.12 µM and the TGI (MDA-MB-435) was 4.66 µM. It also gave a GI50 (OVCAR-3 ovarian) of 4.42 µM, a TGI (OVCAR-3 ovarian) of 16.3 µM and a GI50 (MDA-MB-468 breast) of 1.78 µM. The TGI (MDA-MB-468 breast) was 4.16 µM, the GI50 (M14 melanoma) was 1.89 µM and the TGI (M14 melanoma) was 3.78 µM. For the same compound, the GI50 (DU-145 prostate) was 3.73 µM, the TGI (DU-145 prostate) was 13.9 µM and the GI50 (SNB-75 CNS) was 11 µM. The TGI (SNB-75 CNS) was 24 µM.

Reference: PubChem BioAssay (NCI)
